# Test results reported in article PMC11050070, “Chemical Modifications to Enhance the Drug Properties of a VIP Receptor Antagonist (ANT) Peptide” (International Journal of Molecular Sciences, 2024).
# Where no end group is shown, it is not given here.
# Experiment: Plasma stability T cell activation study
# Type: in vitro ADME
# Conditions: 200 μM peptide mixed 1:1 with healthy donors' plasma, 37 °C, aliquots at 24, 48, 72, 96 hrs; read-out pooled human T cell activation at 10 μM; three donors' plasma; retained up to 96 h (longest time tested); Figure S1
# Protocol: 1.3 Plasma Stability T Cell Activation Study
# 200 μM ANT308 or 200 μM ANT308K-PEG were mixed with healthy donors’ plasma at 1:1 ratio, followed by incubation at 37 °C. Aliquots (150 μL) were collected at 24 hrs, 48 hrs, 72 hrs, and 96 hrs and stored at -80 °C before pooled human T cells activation assay. Assays were performed with three different donor ’s plasma.
# Activated T cells Activated T cells
# Non-Activated T cells Non-Activated T cells […]
# Diffe rentDonors’ plasma Diffe rentDonors’ plasma
# Pre-incubation Time ( hrs) Pre-incubation Time ( hrs)
# Figure S1A-F: Plasma stability and human T cells activation. After incubation with healthy donors’ plasma at 37 °C for 24hrs, 48hrs, 72hrs, and 96hrs. 10 μM ANT308 (A,C,E) or 10 μM ANT308K-PEG (B,D,F) were directly mixed with isolated & pooled human T cells with the […]
substance,measurement,value
KPRRPYTSDYTRLRKQMAVKKYLNLILN-NH2 [ANT308],time of incubation in human plasma after which the ability to activate human T cells is retained,≥ 96 h
